Experimental data from US10172814B2, “Substituted pyridyl-cycloalkyl-carboxylic acids, compositions containing them and medical uses thereof” (BAYER PHARMA AKTIENGESELLSCHAFT, priority 2014, dated 2019).

Molecular target: human PTGES (Homo sapiens (Human), UniProt O14684)
Experiment: Human PTGES biochemical enzyme inhibition assay (conversion of PGH2 to PGE2, TR-FRET)
Details: Enzymatic conversion of PGH2 to PGE2; read-out: Human PTGES IC50
Procedure: Human PTGES Biochemical Enzyme Inhibition Assay:
PTGES (Microsomal prostaglandin E synthase 1) is an enzyme that converts prostaglandin H2 (PGH2) to prostaglandin E2 (PGE2) in the presence of reduced glutathione (GSH).
Recombinant proteins (human isoforms) of PTGES containing a FLAG tag, expressed in baculovirus infected insect cells (Hi-5) and purified by affinity chromatography was used as enzyme in the assay. Substrate was prostaglandin H2 (Cayman Chemicals).
4 ul of a solution of human PTGES in assay buffer [100 mM sodium phosphate pH 7.2, 2.5 mM Glutathion reduced, 1 mM EDTA, 0.01% BSA, 0.4 mM DTT, 0.15 mM n-dodecylmaltoside] was added to the well containing test compound and incubated for 15-20 minutes to allow binding of the compound to the enzyme prior to the enzymatic reaction. The reaction was started by addition of 1 ul of an ice cold solution containing PGH2 (40 nM in assay buffer resulting in a final concentration of 8 nM PGH2 in the assay). […] The concentration of each isoform of PTGES was adapted to the activity of the respective enzyme preparation to maintain linear reaction properties within the reaction time. […] The reaction was stopped by addition of 1 ul of a solution containing 15 mM SnCl2 and 400 mM KF in water. SnCl2 converts the remaining unstable PGH2 to stable PGF2alpha. Then, 3 ul of the a first detection solution containing PGE2-D2 (Cisbio Bioassays, TR-FRET reagent, diluted according to the manufacturer's recommendation, typically 1:20 in reconstitution buffer) was added. […] The resulting mix was incubated overnight at 4° C. to allow the formation of a complex of PGE2 and the detection reagents. […] Dilution series were made prior to the assay in a 100 fold concentrated form by serial dilution. IC50 values were calculated by 4-Parameter fitting.

human PTGES, sequence (O14684 whole entry): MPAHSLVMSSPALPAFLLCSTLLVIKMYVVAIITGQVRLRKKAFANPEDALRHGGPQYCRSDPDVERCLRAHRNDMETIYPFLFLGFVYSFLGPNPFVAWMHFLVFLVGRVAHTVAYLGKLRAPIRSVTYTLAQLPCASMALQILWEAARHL

Row | Compound | IC50 [nM]
1 | Cc1c(NC(=O)C(c2ccc(-c3cncc(C(F)(F)F)c3)c(F)c2)C2CCC2)cccc1C(C)CC(=O)O (mixture of isomers) [Example 146, 3-{3-[(Cyclobutyl{3-fluoro-4-[5-(trifluoromethyl)pyridin-3-yl]phenyl}acetyl)amino]-2-methylphenyl}butanoic acid, Stereoisomeric Mixture 1] | 12.6
2 | Cc1c(CCC(=O)O)cccc1NC(=O)C(c1ccc(-c2ccc(C(F)(F)F)nc2)cc1)C1CCCC1 (racemic) [Example 4, (R/S) 3-{3-[(Cyclopentyl{4-[6-(trifluoromethyl)pyridin-3-yl]phenyl}acetyl)amino]-2-methylphenyl}propanoic acid] | 1320
3 | Cc1c(CCC(=O)O)cccc1NC(=O)C(c1ccc(-c2ccc(C#N)nc2)cc1)C1CCCC1 (racemic) [Example 7, (R/S) 3-[3-({[4-(6-Cyanopyridin-3-yl)phenyl](cyclopentyl)acetyl}amino)-2-methylphenyl]propanoic acid] | 3160
4 | CCOc1cncc(-c2ccc(C(C(=O)Nc3cccc(CCC(=O)O)c3C)C3CCCC3)cc2)c1 (racemic) [Example 8, (R/S) 3-[3-({Cyclopentyl[4-(5-ethoxypyridin-3-yl)phenyl]acetyl}amino)-2-methylphenyl]propanoic acid] | 160
5 | Cc1c(CCC(=O)O)cccc1NC(=O)C(c1ccc(-c2cncc(C(C)(C)O)c2)cc1)C1CCCC1 (racemic) [Example 9, (R/S) 3-{3-[(Cyclopentyl{4-[5-(2-hydroxypropan-2-yl)pyridin-3-yl]phenyl}acetyl)amino]-2-methylphenyl}propanoic acid] | 3560
6 | COCc1cncc(-c2ccc(C(C(=O)Nc3cccc(CCC(=O)O)c3C)C3CCCC3)cc2)c1 (racemic) [Example 10, (R/S) 3-{3-[(Cyclopentyl{4-[5-(methoxymethyl)pyridin-3-yl]phenyl}acetyl)amino]-2-methylphenyl}propanoic acid] | 470
7 | COc1cncc(-c2ccc(C(C(=O)Nc3cccc(CCC(=O)O)c3C)C3CCCC3)cc2)c1 (racemic) [Example 11, (R/S) 3-[3-({Cyclopentyl[4-(5-methoxypyridin-3-yl)phenyl]acetyl}amino)-2-methylphenyl]propanoic acid] | 341
8 | CCc1cncc(-c2ccc(C(C(=O)Nc3cccc(CCC(=O)O)c3C)C3CCCC3)cc2)c1 (racemic) [Example 13, (R/S) 3-[3-({Cyclopentyl[4-(5-ethylpyridin-3-yl)phenyl]acetyl}amino)-2-methylphenyl]propanoic acid] | 78.2
9 | Cc1c(CCC(=O)O)cccc1NC(=O)C(c1ccc(-c2cncc(C3CC3)c2)cc1)C1CCCC1 (racemic) [Example 14, (R/S) 3-[3-({Cyclopentyl[4-(5-cyclopropylpyridin-3-yl)phenyl]acetyl}amino)-2-methylphenyl]propanoic acid] | 115
10 | Cc1c(CCC(=O)O)cccc1NC(=O)C(c1ccc(-c2cncc(OC3CCOCC3)c2)cc1)C1CCCC1 (racemic) [Example 15, (R/S) 3-{3-[(Cyclopentyl{4-[5-(tetrahydro-2H-pyran-4-yloxy)pyridin-3-yl]phenyl}acetyl)amino]-2-methylphenyl}propanoic acid] | 114
11 | Cc1c(CCC(=O)O)cccc1NC(=O)C(c1ccc(-c2cncc(Cl)c2)cc1)C1CCCC1 (racemic) [Example 16, (R/S) 3-[3-({[4-(5-Chloropyridin-3-yl)phenyl](cyclopentyl)acetyl}amino)-2-methylphenyl]propanoic acid] | 59.6
12 | COc1ccc(-c2ccc(C(C(=O)Nc3cccc(CCC(=O)O)c3C)C3CCCC3)cc2)cn1 (racemic) [Example 18, (R/S) 3-[3-({Cyclopentyl[4-(6-methoxypyridin-3-yl)-phenyl]acetyl}amino)-2-methylphenyl]propanoic acid] | 236
13 | Cc1c(CCC(=O)O)cccc1NC(=O)C(c1ccc(-c2ccc(F)nc2)cc1)C1CCCC1 (racemic) [Example 19, (R/S) 3-[3-({Cyclopentyl[4-(6-fluoropyridin-3-yl)-phenyl]acetyl}amino)-2-methylphenyl]propanoic acid] | 552
14 | COc1ncccc1-c1ccc(C(C(=O)Nc2cccc(CCC(=O)O)c2C)C2CCCC2)cc1 (racemic) [Example 20, (R/S) 3-[3-({Cyclopentyl[4-(2-methoxypyridin-3-yl)-phenyl]acetyl}amino)-2-methylphenyl]propanoic acid] | 2550
15 | Cc1cncc(-c2ccc(C(C(=O)Nc3cccc(CCC(=O)O)c3C)C3CCCC3)cc2)c1 (racemic) [Example 21, (R/S) 3-[3-({Cyclopentyl[4-(5-methylpyridin-3-yl)-phenyl]acetyl}amino)-2-methylphenyl]propanoic acid] | 161
16 | Cc1c(CCC(=O)O)cccc1NC(=O)C(c1ccc(-c2cccnc2F)cc1)C1CCCC1 (racemic) [Example 23, (R/S) 3-[3-({cyclopentyl[4-(2-fluoro-pyridin-3-yl)-phenyl]-acetyl}amino)-2-methyl-phenyl]propanoic acid] | 5260
17 | Cc1cc(-c2ccc(C(C(=O)Nc3cccc(CCC(=O)O)c3C)C3CCCC3)cc2)cnc1C (racemic) [Example 27, (R/S) 3-[3-({Cyclopentyl[4-(5,6-dimethylpyridin-3-yl)phenyl]acetyl}amino)-2-methylphenyl]propanoic acid] | 90.3
18 | Cc1c(CCC(=O)O)cccc1NC(=O)C(c1ccc(-c2cncc(OC(F)F)c2)cc1)C1CCCC1 (racemic) [Example 28, (R/S) 3-{3-[(Cyclopentyl{4-[5-(difluoromethoxy)pyridin-3-yl]phenyl}acetyl)amino]-2-methylphenyl}propanoic acid] | 380
19 | Cc1c(CCC(=O)O)cccc1NC(=O)C(c1ccc(-c2cncc(C(F)F)c2)cc1)C1CCCC1 (racemic) [Example 29, (R/S) 3-{3-[(Cyclopentyl{4-[5-(difluoromethyl)pyridin-3-yl]phenyl}acetyl)amino]-2-methylphenyl}propanoic acid] | 78.2
20 | Cc1c(CCC(=O)O)cccc1NC(=O)C(c1ccc(-c2cncc(CF)c2)cc1)C1CCCC1 (racemic) [Example 30, (R/S) 3-{3-[(Cyclopentyl{4-[5-(fluoromethyl)pyridin-3-yl]phenyl}acetyl)amino]-2-methylphenyl}propanoic acid] | 188
21 | Cc1c(CCC(=O)O)cccc1NC(=O)C(c1ccc(-c2cncc(Cl)c2)cc1)C1CC1 (racemic) [Example 31, (R/S) 3-[3-({[4-(5-Chloropyridin-3-yl)phenyl](cyclopropyl)acetyl}amino)-2-methylphenyl]propanoic acid] | 443
22 | Cc1c(CCC(=O)O)cccc1NC(=O)C(c1ccc(-c2cncc(C(F)(F)F)c2)cc1)C1CC1 (racemic) [Example 32, (R/S) 3-{3-[(Cyclopropyl{4-[5-(trifluoromethyl)pyridin-3-yl]phenyl}acetyl)amino]-2-methylphenyl}propanoic acid] | 470
23 | Cc1c(NC(=O)C(c2ccc(-c3cncc(C(F)(F)F)c3)cc2)C2CCCC2)cccc1OCC(=O)O (racemic) [Example 33, (R/S) {3-[(Cyclopentyl{4-[5-(trifluoromethyl)pyridin-3-yl]phenyl}acetyl)amino]-2-methylphenoxy}acetic acid] | 14.3
24 | COc1ccc(NC(=O)C(c2ccc(-c3cncc(C(F)(F)F)c3)cc2)C2CCCC2)c(C)c1CCC(=O)O (racemic) [Example 40, (R/S) 3-{3-[(Cyclopentyl{4-[5-(trifluoromethyl)pyridin-3-yl]phenyl}acetyl)amino]-6-methoxy-2-methylphenyl}propanoic acid] | 28.2
25 | Cc1cc(C(C(=O)Nc2cccc(CCC(=O)O)c2C)C2CCCC2)ccc1-c1cncc(C(F)(F)F)c1 (racemic) [Example 41, (R/S) 3-{3-[(Cyclopentyl{3-methyl-4-[5-(trifluoromethyl)pyridin-3-yl]phenyl}acetyl)amino]-2-methylphenyl}propanoic acid] | 19.2
26 | CCOc1cncc(-c2ccc(C(C(=O)Nc3cccc(CCC(=O)O)c3C)C3CCCC3)cc2F)c1 (racemic) [Example 46, (R/S) 3-[3-({Cyclopentyl[4-(5-ethoxypyridin-3-yl)-3-fluorophenyl]acetyl}amino)-2-methylphenyl]propanoic acid] | 55.3
27 | Cc1c(CCC(=O)O)cccc1NC(=O)C(c1ccc(-c2cncc(C(F)(F)F)c2)c(F)c1)C1CCCC1 (racemic) [Example 47, (R/S) 3-{3-[(Cyclopentyl{3-fluoro-4-[5-(trifluoromethyl)pyridin-3-yl]phenyl}acetyl)amino]-2-methylphenyl}propanoic acid] | 15.9
28 | Cc1c(CCC(=O)O)cccc1NC(=O)C(c1ccc(-c2cncc(C(F)F)c2)c(F)c1)C1CCCC1 (racemic) [Example 50, (R/S) 3-{3-[(cyclopentyl{4-[5-(difluoromethyl)pyridin-3-yl]-3-fluorophenyl}acetyl)amino]-2-methylphenyl}propanoic acid] | 42.9
